Measurements as given in patent US12427210B2, “Compounds comprising a fibroblast activation protein ligand and use thereof” (priority 2019, dated 2025).
Read-outs that look alike come from different tables or passages of the source. Numbered stars: 1 amine (or outer) side, 2 acyl side, 3 side chain; on linkers, the order of the positions; unused ones are H or OH. Bridge positions count the residues as written; N and C are the ends. Peptide text beside a SMILES is read from it. * marks the point of attachment. X1 = O=C(O)CN1CCN(CC(=O)O)CCN(CC(=O)N2CCN(Cc3cc(C[*:1])cc(C[*:2])c3)CC2)CCN(CC(=O)O)CC1; Hexanoyl = CCCCCC(=O)*

Legend:
[1] = test system: NMDA; details: 10 μM
[2] = test system: serine protease NS3 (a.a. 3-181) from Hepatitis C virus genotype 1b (mutant D168V)
[3] = test system: serine protease NS3 (a.a. 3-181) from Hepatitis C virus genotype 1b (mutant R155K)
[4] = target: A2A (h) (Homo sapiens, UniProt P29274); test: biochemical; details: read-out: % Inhibition of Specific Binding
[5] = target: D1 (h) (Homo sapiens, UniProt P21728); test: biochemical; details: read-out: % Inhibition of Specific Binding
[6] = target: D2S (h) (Homo sapiens, UniProt P14416); test: biochemical; details: read-out: % Inhibition of Specific Binding
[7] = target: ETA (h) (Homo sapiens, UniProt P25101); test: biochemical; details: read-out: % Inhibition of Specific Binding
[8] = target: H1 (h) (Homo sapiens, UniProt P35367); test: biochemical; details: read-out: % Inhibition of Specific Binding
[9] = target: 5-HT1A (h) (Homo sapiens, UniProt P08908); test: biochemical; details: read-out: % Inhibition of Specific Binding
[10] = target: 5-HT transporter (h) (Homo sapiens, UniProt P31645); test: biochemical; details: read-out: % Inhibition of Specific Binding
[11] = target: T1, Ubiquitin carboxyl-terminal hydrolase 8 (Homo sapiens, UniProt P40818); test: biochemical; details: read-out: Percentage inhibition (%)
T1 sequence (P40818 1-1118): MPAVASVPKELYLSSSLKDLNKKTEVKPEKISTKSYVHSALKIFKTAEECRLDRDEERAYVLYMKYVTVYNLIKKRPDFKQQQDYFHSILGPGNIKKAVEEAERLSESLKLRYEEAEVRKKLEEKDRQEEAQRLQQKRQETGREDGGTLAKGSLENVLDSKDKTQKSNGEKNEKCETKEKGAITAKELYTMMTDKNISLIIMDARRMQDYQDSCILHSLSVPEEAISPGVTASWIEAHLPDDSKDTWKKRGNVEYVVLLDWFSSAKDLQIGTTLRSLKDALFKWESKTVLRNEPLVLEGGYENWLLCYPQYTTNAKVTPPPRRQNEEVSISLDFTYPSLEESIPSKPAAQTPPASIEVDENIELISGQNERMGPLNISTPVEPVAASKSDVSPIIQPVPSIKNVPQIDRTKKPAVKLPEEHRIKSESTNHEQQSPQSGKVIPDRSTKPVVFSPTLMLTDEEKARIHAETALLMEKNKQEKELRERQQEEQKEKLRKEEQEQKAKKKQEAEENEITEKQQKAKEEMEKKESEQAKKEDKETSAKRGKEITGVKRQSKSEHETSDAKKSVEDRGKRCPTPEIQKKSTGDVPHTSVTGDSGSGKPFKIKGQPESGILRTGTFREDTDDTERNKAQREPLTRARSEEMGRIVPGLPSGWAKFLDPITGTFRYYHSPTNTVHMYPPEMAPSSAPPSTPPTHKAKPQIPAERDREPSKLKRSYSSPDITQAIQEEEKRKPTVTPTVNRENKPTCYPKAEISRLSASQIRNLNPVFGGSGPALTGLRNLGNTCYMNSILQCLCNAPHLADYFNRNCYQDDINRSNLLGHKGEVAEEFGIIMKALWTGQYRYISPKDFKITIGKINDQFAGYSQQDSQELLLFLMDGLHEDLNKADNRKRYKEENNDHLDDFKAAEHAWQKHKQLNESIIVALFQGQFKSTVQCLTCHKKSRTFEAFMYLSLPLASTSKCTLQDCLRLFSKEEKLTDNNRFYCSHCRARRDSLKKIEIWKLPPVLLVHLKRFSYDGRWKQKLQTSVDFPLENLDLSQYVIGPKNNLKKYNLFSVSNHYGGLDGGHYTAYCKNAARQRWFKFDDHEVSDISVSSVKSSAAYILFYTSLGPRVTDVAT

[12] = target: Ubiquitin carboxyl-terminal hydrolase 10 (Homo sapiens, UniProt Q14694); test: biochemical; details: read-out: Percentage inhibition (%)
[13] = target: Ubiquitin carboxyl-terminal hydrolase 14 (Homo sapiens, UniProt P54578); test: biochemical; details: read-out: Percentage inhibition (%)
[14] = target: DPP7 (Homo sapiens, UniProt Q9UHL4); test: biochemical; details: read-out: Percentage inhibition (%)
[15] = target: DPP8 (Homo sapiens, UniProt Q6V1X1); test: biochemical; details: read-out: Percentage inhibition (%)
[16] = target: DPP9 (Homo sapiens, UniProt Q86TI2); test: biochemical; details: read-out: Percentage inhibition (%)
[17] = target: T2, Matrix metalloprotease 9 (mutant Q279R) (Homo sapiens, UniProt P14780, Q279R); test: biochemical; details: read-out: Percentage inhibition (%)
T2 sequence (P14780 94-707 Q279R): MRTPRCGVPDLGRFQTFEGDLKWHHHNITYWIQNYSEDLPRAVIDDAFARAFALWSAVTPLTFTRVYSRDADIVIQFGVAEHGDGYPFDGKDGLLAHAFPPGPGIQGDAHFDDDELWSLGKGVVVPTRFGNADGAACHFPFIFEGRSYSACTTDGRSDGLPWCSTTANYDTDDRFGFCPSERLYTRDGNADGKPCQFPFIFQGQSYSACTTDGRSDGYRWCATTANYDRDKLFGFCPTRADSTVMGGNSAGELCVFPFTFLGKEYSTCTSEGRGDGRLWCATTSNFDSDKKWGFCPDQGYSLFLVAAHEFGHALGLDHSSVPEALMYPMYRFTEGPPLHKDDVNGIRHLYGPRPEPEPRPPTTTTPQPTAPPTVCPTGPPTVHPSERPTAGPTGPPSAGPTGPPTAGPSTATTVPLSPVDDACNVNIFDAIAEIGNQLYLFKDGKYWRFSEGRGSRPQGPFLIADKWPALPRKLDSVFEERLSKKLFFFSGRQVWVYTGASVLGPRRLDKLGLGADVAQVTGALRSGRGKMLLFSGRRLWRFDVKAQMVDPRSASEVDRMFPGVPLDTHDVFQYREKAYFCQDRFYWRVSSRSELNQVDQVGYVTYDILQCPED

DPP8, sequence (Q6V1X1 whole entry, species assumed): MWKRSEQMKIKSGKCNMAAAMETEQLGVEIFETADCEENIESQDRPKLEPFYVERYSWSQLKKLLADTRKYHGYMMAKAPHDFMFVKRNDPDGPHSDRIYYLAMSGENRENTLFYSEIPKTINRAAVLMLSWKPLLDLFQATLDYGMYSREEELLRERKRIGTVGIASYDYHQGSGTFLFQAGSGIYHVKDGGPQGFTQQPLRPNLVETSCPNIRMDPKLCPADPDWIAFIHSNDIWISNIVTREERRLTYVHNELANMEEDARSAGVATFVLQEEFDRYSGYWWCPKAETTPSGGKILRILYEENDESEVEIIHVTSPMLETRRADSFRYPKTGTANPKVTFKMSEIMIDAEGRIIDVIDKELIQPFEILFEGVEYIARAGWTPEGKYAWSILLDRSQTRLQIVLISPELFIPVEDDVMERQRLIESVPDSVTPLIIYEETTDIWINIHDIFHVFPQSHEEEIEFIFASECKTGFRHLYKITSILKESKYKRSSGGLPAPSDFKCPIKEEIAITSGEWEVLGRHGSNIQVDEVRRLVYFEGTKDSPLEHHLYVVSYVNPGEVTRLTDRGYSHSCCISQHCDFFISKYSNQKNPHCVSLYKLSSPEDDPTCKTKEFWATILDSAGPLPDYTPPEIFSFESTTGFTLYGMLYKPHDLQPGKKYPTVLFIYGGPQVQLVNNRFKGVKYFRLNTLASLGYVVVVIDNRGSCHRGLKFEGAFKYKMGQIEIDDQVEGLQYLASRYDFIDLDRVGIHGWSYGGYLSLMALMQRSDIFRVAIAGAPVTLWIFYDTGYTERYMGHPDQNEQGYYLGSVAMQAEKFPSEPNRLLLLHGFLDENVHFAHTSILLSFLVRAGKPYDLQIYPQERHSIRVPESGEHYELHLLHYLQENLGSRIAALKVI
Ubiquitin carboxyl-terminal hydrolase 10, sequence (Q14694 whole entry): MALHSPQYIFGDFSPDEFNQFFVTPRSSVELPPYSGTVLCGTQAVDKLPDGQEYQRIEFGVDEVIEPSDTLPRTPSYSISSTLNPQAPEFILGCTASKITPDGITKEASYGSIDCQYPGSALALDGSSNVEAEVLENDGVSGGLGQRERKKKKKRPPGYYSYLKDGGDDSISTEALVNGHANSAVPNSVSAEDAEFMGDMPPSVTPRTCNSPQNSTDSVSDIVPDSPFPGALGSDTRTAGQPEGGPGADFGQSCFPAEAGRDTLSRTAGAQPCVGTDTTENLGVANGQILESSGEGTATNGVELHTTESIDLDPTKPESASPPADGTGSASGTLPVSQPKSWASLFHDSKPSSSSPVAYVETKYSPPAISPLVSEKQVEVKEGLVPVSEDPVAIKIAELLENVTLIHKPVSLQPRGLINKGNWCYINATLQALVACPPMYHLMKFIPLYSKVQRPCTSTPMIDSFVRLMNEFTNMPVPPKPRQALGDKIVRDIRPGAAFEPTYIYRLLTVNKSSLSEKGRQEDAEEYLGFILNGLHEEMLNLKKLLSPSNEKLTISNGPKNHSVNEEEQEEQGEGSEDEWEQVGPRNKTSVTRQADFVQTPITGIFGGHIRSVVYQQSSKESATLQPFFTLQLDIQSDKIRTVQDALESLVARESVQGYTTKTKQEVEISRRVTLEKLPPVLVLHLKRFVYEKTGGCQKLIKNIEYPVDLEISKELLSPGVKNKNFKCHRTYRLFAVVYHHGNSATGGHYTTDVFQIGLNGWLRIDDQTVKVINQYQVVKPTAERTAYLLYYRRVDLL
Ubiquitin carboxyl-terminal hydrolase 14, sequence (P54578 whole entry): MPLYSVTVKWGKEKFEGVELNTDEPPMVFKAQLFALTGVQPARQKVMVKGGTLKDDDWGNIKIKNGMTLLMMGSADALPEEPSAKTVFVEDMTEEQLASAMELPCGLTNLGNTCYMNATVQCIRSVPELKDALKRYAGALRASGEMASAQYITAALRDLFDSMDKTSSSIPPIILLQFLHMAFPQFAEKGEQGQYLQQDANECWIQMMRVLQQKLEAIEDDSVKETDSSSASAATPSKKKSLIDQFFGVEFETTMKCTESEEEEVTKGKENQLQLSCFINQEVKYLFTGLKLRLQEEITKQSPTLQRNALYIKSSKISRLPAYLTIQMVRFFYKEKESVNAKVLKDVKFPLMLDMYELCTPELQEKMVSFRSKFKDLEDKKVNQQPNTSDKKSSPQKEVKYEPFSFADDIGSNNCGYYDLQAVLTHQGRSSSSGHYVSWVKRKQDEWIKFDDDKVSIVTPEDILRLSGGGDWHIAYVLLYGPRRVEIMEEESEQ
DPP9, sequence (Q86TI2 whole entry, species assumed): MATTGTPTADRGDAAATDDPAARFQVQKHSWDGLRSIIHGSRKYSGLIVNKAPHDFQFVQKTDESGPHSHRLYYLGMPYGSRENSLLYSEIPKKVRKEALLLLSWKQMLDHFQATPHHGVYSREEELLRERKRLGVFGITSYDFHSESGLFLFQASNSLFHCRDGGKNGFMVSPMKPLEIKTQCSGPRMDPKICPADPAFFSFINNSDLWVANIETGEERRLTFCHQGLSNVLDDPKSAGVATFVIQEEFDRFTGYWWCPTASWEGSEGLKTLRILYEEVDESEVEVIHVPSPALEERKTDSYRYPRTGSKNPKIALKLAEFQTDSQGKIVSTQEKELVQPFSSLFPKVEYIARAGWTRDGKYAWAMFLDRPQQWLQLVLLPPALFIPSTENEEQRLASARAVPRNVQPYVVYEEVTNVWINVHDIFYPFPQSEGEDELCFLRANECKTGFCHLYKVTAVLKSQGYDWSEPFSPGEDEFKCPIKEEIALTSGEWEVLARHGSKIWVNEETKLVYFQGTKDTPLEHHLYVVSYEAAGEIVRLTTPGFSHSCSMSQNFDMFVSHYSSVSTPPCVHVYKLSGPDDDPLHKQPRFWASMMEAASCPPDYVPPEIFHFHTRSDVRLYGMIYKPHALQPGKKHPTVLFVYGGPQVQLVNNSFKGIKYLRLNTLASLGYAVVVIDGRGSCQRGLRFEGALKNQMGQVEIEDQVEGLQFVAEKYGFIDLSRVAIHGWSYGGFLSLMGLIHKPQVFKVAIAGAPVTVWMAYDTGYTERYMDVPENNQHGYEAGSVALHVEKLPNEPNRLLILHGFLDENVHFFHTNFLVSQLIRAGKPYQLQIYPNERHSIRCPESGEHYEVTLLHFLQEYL
5-HT transporter (h), sequence (P31645 whole entry): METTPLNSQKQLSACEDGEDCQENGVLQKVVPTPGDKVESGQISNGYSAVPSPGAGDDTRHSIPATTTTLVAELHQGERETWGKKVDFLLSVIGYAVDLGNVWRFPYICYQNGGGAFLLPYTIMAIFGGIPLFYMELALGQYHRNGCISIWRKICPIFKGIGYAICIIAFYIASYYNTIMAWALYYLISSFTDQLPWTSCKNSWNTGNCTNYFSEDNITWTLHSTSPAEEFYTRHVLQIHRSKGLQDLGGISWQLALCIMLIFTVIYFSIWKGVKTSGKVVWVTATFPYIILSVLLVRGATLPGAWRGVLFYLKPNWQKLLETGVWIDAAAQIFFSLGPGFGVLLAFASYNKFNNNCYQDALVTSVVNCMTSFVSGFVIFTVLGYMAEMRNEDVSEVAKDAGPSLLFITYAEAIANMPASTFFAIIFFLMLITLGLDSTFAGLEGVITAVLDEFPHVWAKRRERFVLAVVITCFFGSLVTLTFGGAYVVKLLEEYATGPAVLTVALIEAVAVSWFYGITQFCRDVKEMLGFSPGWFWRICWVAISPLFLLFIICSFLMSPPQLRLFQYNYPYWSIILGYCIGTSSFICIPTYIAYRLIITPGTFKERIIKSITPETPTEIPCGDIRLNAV
D1 (h), sequence (P21728 whole entry): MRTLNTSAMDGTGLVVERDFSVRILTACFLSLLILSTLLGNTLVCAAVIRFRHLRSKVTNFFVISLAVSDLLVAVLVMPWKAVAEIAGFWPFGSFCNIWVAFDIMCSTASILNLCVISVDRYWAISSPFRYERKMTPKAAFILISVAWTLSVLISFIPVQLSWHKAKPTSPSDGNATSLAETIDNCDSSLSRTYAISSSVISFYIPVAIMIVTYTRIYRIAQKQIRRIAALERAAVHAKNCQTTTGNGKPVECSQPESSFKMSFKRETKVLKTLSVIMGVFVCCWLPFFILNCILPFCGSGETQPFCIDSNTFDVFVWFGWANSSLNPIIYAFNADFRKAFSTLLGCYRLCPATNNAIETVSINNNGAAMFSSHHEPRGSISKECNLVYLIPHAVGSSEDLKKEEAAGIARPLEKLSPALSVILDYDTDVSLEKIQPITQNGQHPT
ETA (h), sequence (P25101 21-427): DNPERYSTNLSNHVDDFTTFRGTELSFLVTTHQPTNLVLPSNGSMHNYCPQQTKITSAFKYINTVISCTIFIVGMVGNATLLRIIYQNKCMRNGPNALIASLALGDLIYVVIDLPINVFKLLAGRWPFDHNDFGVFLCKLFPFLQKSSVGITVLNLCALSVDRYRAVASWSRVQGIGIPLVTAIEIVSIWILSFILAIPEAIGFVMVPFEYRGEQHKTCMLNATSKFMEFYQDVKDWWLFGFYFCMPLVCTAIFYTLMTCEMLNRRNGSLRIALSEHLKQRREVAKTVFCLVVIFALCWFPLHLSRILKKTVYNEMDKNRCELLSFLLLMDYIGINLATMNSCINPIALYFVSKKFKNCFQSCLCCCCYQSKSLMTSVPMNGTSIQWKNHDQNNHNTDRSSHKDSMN
D2S (h), sequence (P14416 1-414 isoform P14416-2): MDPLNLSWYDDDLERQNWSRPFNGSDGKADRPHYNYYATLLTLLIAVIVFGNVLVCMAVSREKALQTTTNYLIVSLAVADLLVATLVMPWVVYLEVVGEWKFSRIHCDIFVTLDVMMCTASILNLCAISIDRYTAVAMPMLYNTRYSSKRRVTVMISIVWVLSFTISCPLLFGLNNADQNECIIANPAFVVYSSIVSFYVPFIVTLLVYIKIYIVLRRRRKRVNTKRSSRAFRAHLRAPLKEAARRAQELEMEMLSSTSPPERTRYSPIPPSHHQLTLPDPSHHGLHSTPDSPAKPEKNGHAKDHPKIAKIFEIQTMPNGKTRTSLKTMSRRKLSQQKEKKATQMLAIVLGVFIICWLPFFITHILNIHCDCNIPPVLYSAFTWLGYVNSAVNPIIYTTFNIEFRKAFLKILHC

Structure (SMILES)	% Inhibition of Specific Binding [1] [%]	Percentage inhibition (%) ([2]; 1 μM)	Percentage inhibition (%) ([2]; 10 μM)	Percentage inhibition (%) ([3]; 1 μM)	Percentage inhibition (%) ([3]; 10 μM)	inhibition at 10 µM [4] [%]	inhibition at 10 µM [5] [%]	inhibition at 10 µM [6] [%]	inhibition at 10 µM [7] [%]	inhibition at 10 µM [8] [%]	inhibition at 10 µM [9] [%]	inhibition at 10 µM [10] [%]	inhibition at 1 µM [11] [%]	inhibition at 10 µM [11] [%]	inhibition at 1 µM [12] [%]	inhibition at 10 µM [12] [%]	inhibition at 1 µM [13] [%]	inhibition at 10 µM [13] [%]	inhibition at 1 µM [14] [%]	inhibition at 10 µM [14] [%]	also measured
CCCCCC(=O)N[C@H]1CSCc2cc(cc(CN3CCN(C(=O)CN4CCN(CC(=O)O)CCN(CC(=O)O)CCN(CC(=O)O)CC4)CC3)c2)CSC[C@@H](C(=O)N[C@@H](CC(=O)O)C(N)=O)NC(=O)[C@H](Cc2ccccc2)NC(=O)[C@H](CCC(N)=O)NC(=O)[C@H]([C@@H](C)O)NC(=O)[C@@H]2CCCN2C(=O)[C@@H]2CCCN2C1=O [Compound 3BP-3407, Hex-[Cys(tMeBn(DOTA-PP))-Pro-Pro-Thr-Gln-Phe-Cys]-Asp-NH2] (Hexanoyl-CPPTQFCD-NH2; linker 1-7 via X1)	9	1	−6	−2	5	-4	0	15	-18	11	-3	-3	-3	6	-2	5	-1	5	2	-3	inhibition at 1 µM [15]: 1%; inhibition at 10 µM [15]: 5%; inhibition at 1 µM [16]: -1%; inhibition at 10 µM [16]: 0%; inhibition at 1 µM [17]: 3%; inhibition at 10 µM [17]: 2%
CCCCCC(=O)N[C@H]1CSCc2cc(CSCCNC(=O)CN3CCN(CC(=O)O)CCN(CC(=O)O)CCN(CC(=O)O)CC3)cc(c2)CSC[C@@H](C(=O)O)NC(=O)[C@H](Cc2ccccc2)NC(=O)[C@H](CCC(N)=O)NC(=O)[C@H]([C@@H](C)O)NC(=O)[C@@H]2CCCN2C(=O)[C@@H]2CCCN2C1=O [Compound 3BP-3554, Hex-[Cys(tMeBn(DOTA-AET))-Pro-Pro-Thr-Gln-Phe-Cys]-OH]	1	−2	−17	−1	0	-16	7	-7	6	4	-5	-8	2	1	1	-1	1	2	-1	-7	inhibition at 1 µM [15]: 1%; inhibition at 10 µM [15]: 11%; inhibition at 1 µM [16]: -1%; inhibition at 10 µM [16]: -5%; inhibition at 1 µM [17]: 3%; inhibition at 10 µM [17]: 2%
